{
  "source": "paper PMC6450699",
  "about": "(Archives of biochemistry and biophysics, 2018)",
  "target": "human cytochrome P450 3A4 (CYP3A4) (Homo sapiens, UniProt P08684, C58T/C64A/C98S/F215C/C239S/C468G)",
  "sequence (P08684 13-503 C58T/C64A/C98S/F215C/C239S/C468G)": "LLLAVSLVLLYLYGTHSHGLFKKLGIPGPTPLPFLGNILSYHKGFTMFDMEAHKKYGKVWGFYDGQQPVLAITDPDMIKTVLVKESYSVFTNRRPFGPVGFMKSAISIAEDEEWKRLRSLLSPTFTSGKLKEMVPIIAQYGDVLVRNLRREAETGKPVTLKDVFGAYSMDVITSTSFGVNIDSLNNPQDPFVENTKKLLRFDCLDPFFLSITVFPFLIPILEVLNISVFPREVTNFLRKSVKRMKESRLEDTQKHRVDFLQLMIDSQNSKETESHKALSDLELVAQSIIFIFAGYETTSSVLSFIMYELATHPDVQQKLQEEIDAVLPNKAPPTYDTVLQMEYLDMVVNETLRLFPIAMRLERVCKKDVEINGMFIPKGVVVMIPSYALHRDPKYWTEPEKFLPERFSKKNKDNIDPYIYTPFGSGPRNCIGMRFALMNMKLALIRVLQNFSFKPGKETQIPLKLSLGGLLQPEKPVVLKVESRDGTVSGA",
  "assay": "purified enzyme with CPR: fluorescent HFC production and NADPH consumption",
  "assay_type": "biochemical",
  "data": [
    {"compound": "O=c1cc(C(F)(F)F)c2ccc(OCc3ccccc3)cc2o1", "note": "[BFC, 7-benzyloxy-4-trifluoromethylcoumarin]", "values": [
      {"measurement": "HFC produced^b", "value": "0.0044 ± 0.0008", "unit": "μmol/min/μmol enzyme"}
    ]}
  ]
}
